Source: ChEMBL document CHEMBL1201862, “PubChem BioAssay data set” (2004)
Activity calls are given as the source filed them.

Legend:
[1] = target: T1, Alkaline phosphatase, tissue-nonspecific isozyme (Homo sapiens, UniProt P05186); experiment: TNAP enzyme inhibition by screening hits, dose response, selectivity assay for mouse IAP inhibitor project, biochemical, human TNAP, uHTS hits (AID 488906); type: functional
T1 sequence (P05186 whole entry): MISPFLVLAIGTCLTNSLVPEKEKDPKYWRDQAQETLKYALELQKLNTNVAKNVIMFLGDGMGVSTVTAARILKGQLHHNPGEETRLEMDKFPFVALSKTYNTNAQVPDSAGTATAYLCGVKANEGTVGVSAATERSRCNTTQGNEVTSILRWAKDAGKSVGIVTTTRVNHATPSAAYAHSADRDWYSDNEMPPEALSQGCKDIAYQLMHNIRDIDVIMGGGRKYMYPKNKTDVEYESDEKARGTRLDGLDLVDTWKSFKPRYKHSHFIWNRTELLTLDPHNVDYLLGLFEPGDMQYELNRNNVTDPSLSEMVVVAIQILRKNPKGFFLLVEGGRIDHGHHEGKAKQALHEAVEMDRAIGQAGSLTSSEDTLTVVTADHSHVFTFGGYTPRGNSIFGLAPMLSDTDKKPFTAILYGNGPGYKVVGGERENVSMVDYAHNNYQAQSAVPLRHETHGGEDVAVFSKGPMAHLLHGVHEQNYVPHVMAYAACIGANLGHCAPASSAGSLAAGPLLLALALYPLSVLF

[2] = target: Intestinal-type alkaline phosphatase (Mus musculus, UniProt P24822); experiment: PubChem AID 488785; type: functional
[3] = target: Intestinal-type alkaline phosphatase (Homo sapiens, UniProt P09923); experiment: inhibition of human intestinal alkaline phosphatase – biochemical, dose response (AID 488876); type: functional
[4] = target: Estrogen receptor beta (Homo sapiens, UniProt Q92731); experiment: ERβ–SRC-3 coactivator interaction inhibitors, confirmation, orthogonal assay, biochemical, ELISA, streptavidin-HRP readout (AID 1060)
[5] = target: T2, Carboxy-terminal domain RNA polymerase II polypeptide A small phosphatase 1 (Homo sapiens, UniProt Q9GZU7); experiment: inhibitors of CTDSP1, concentration-response testing, biochemical assay, absorbance-based, actives from ultra-high-throughput screening (AID 540297); type: functional
T2 sequence (Q9GZU7 whole entry): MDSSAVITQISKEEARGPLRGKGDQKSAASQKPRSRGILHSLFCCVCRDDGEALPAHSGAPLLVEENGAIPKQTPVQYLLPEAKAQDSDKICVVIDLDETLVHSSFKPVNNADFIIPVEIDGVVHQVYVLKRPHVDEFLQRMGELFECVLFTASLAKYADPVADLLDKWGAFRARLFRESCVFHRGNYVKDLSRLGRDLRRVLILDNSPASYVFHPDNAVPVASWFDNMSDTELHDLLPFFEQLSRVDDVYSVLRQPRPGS

[6] = NIH-3T3 fibroblast cytotoxicity, dose response, cytotoxicity control, cell-based, fluorescence, Alamar Blue, secondary assay (AID 2327); type: functional;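 further: NIH-3T3 mouse fibroblasts cultured with fluconazole at 8 µg/mL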
[7] = system: H9c2; experiment: cells; type: functional, cell-based; details: Rattus norvegicus, H9c2, Myocardium;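 further: confirmatory concentration-response retest of ultra-high-throughput screening hits for modulation of myocardial damage; cell death induced by hydrogen peroxide oxidative stress; compound pretreatment for 60 min then peroxide exposure for 2 h; potency is for protecting the cells against peroxide damage rather than for killing them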
[8] = Counterscreen for AddAB inhibitors: absorbance-based bacterial cell-based high throughput dose response assay for inhibitors of bacterial viability. [Related pubchem assays (depositor defined):AID435030, AID449728, AID449731, AID488942, AID488955, AID488956]; type: functional
[9] = Luminescence Cell-Based Dose Retest to Confirm Inhibitors of Cancer Stem Cells. [Related pubchem assays (depositor defined):AID2717, AID2721]; type: functional; details: Homo sapiens
[10] = target: Exodeoxyribonuclease V (Escherichia coli (strain K12), UniProt P04993+P07648+P08394); experiment: E. coli RecBCD inhibitors, dose response, counter-screen for AddAB inhibitor project, absorbance, V66 E. coli, mutant T4 phage (AID 492957); type: functional, cell-based, Escherichia coli str. K-12 substr. MG1655
[11] = target: Heat shock protein HSP 90-alpha (Homo sapiens, UniProt P07900); type: functional, organism-based
[12] = C. albicans growth with fluconazole, confirmation, fluorescence, retest (AID 2467); type: functional, cell-based
[13] = target: DNA dC->dU-editing enzyme APOBEC-3G (Homo sapiens, UniProt Q9HC16); type: functional;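 further: Dose-response counterscreen measuring inhibition of APOBEC3G DNA deaminase activity, run while confirming APOBEC3A inhibitors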
[14] = target: DNA dC->dU-editing enzyme APOBEC-3A (Homo sapiens, UniProt P31941); experiment: Dose Response confirmation of small molecule APOBEC3A DNA Deaminase Inhibitors via a fluorescence-based single-stranded DNA deaminase assay. [Related pubchem assays (depositor defined):AID493011, AID493024]; type: functional
[15] = cytotoxicity toward DRD oncogenic fibroblasts, dose response, cell-based, non-viral oncogenic, luminescence (AID 1934); type: functional; details: Homo sapiens
[16] = system: HEK293; experiment: cells; type: functional, cell-based; details: Homo sapiens
[17] = system: BJ; experiment: cytotoxicity toward BJ-TERT fibroblasts, dose response, cell-based, RAS-independent, luminescence (AID 1933); type: functional; details: Homo sapiens
[18] = target: T3, Replicative DNA helicase DnaB (Mycobacterium tuberculosis, UniProt P9WMR3); experiment: DnaB intein splicing inhibitors, dose response, biochemical, cell-free fluorescence (AID 449749); type: functional
T3 sequence (P9WMR3 whole entry): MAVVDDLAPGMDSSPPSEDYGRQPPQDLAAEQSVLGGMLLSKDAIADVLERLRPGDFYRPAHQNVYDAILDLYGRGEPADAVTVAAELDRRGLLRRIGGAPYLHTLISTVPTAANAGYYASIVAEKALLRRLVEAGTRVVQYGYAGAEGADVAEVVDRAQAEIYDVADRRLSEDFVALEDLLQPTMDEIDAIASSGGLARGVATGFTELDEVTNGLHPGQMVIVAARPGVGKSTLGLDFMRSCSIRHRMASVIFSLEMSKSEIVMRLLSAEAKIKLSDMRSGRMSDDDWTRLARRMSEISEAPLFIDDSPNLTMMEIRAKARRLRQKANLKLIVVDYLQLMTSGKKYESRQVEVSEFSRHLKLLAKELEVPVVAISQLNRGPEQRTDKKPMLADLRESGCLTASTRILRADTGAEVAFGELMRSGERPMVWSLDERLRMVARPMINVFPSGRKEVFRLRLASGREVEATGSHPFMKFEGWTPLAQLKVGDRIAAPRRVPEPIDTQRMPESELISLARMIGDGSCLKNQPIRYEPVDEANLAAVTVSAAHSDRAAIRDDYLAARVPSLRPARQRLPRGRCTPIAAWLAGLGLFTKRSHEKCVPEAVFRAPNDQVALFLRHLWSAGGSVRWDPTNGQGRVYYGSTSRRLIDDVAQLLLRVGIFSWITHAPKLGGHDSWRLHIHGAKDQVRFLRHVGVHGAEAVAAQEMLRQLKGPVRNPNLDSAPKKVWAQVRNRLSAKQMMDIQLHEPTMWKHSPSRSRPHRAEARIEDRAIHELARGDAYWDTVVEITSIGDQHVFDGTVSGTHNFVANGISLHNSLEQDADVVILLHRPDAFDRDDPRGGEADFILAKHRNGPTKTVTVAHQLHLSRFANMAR

[19] = target: T4, Protein RecA (Mycobacterium tuberculosis, UniProt P9WHJ3); experiment: Fluorescence Cell-Free Homogeneous Dose Retest to Identify Inhibitors of RecA-Intein Splicing Activity. [Related pubchem assays (depositor defined):AID2097, AID2223, AID489010, AID492950]; type: functional
T4 sequence (P9WHJ3 whole entry): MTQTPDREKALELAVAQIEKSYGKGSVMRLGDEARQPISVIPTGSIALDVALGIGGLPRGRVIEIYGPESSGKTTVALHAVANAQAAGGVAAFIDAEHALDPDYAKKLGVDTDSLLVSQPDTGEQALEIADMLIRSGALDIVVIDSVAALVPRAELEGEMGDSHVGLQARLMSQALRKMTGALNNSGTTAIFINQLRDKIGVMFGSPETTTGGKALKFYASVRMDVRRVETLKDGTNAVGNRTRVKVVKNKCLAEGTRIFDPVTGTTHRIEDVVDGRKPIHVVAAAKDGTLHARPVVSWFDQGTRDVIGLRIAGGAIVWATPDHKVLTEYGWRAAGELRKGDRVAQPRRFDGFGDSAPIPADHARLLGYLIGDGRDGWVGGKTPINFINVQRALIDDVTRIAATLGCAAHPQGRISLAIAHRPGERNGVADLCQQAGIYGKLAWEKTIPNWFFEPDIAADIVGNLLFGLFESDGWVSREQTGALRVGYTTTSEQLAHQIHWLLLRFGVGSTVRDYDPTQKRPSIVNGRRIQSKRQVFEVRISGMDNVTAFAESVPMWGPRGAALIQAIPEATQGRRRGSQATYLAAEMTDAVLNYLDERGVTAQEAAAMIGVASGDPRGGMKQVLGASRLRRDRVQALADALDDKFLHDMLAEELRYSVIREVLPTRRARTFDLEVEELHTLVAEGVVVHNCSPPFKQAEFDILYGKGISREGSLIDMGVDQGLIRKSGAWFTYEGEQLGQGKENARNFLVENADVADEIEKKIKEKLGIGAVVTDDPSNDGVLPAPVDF

[20] = system: HEK293; experiment: cells; type: functional, cell-based; details: Homo sapiens; remark: listed apart in the source
[21] = target: 1-acylglycerol-3-phosphate O-acyltransferase ABHD5/Perilipin-5 (Homo sapiens, UniProt Q00G26+Q8WTS1); experiment: Luminescence-based biochemical high throughput dose response assay for inhibitors of the interaction of the lipase co-activator protein, abhydrolase domain containing 5 (ABHD5) with perilipin-5 (MLDP; PLIN5) (2K validation set). [Related pubchem assays (depositor defined):AID493035, AID493241]
[22] = system: HEK293; experiment: NOD1 signaling inhibitors, primary screen, cell-based, luminescence, uHTS (AID 1578); type: functional; details: Homo sapiens
[23] = system: BJ; experiment: cytotoxicity toward BJ-TERT-LT-ST fibroblasts, dose response, cell-based, RAS-independent, luminescence (AID 1935); type: functional; details: Homo sapiens;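 further: BJ fibroblasts immortalized with TERT plus LT and ST oncogenes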
[24] = system: HEK293; experiment: NOD2 signaling inhibitors in MDP-stimulated cells, cell-based, uHTS, luminescence (AID 2001); type: functional; details: Homo sapiens
[25] = system: BJ; experiment: cytotoxicity toward Ras-transformed BJeLR fibroblasts, dose response, cell-based, alamar blue fluorescence, cherrypicked samples (AID 2631); type: functional; details: Homo sapiens;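 further: confirmatory dose-response assay in RAS-dependent BJ fibroblasts engineered with TERT, LT and ST, with cytotoxicity read by fluorescence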
[26] = target: Nucleotide-binding oligomerization domain-containing protein 2 (Homo sapiens, UniProt Q9HC29); experiment: NOD2 signaling inhibitors, cell-based, luminescence, uHTS, HEK293 (AID 1566); type: functional
[27] = growth suppression of PTEN-null colon cells, dose response, cell-based, HCT116 PTEN knockout (AID 1047); type: functional;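 further: HCT116 colon tumor cells with PTEN knocked out; cells exposed to compound for 60 hours before readout; potency for loss of cell viability measured by luminescence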
[28] = growth suppression of beta-catenin-knockout colon cells, dose response, cell-based, HCT116, human colon tumor (AID 1045); type: functional;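 further: HCT116 colon tumor cells with beta catenin knocked out; cells exposed to compound for 60 hours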
[29] = system: HEK293; experiment: cells; type: functional, cell-based; details: Homo sapiens; remark: listed apart in the source
[30] = system: BJ; experiment: cells; type: functional, cell-based; details: Homo sapiens
[31] = microbe, parasite or virus in culture; type: functional; details: Mycobacterium tuberculosis
[32] = target: Perilipin-1/ABHD5 (Homo sapiens, UniProt O60240+Q8WTS1); experiment: Luminescence-based biochemical high throughput dose response assay for inhibitors of the interaction of the lipase co-activator protein, abhydrolase domain containing 5 (ABHD5) with perilipin-1 (PLIN1) (2K validation set). [Related pubchem assays (depositor defined):AID493027, AID493057]
[33] = target: T5, Bcl-2-related protein A1 (Mus musculus, UniProt Q07440); type: functional;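 further: confirmatory dose–response counterscreen on Bfl-1, used to check hits from a UBC13 polyubiquitin inhibitor campaign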
T5 sequence (Q07440 whole entry): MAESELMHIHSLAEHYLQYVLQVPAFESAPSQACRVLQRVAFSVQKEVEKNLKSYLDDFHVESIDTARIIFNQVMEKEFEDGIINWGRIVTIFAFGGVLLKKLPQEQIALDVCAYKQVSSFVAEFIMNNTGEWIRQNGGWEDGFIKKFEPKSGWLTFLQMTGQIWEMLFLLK

[34] = target: T6, Ubiquitin-conjugating enzyme E2 N (Homo sapiens, UniProt P61088); type: functional
T6 sequence (P61088 whole entry): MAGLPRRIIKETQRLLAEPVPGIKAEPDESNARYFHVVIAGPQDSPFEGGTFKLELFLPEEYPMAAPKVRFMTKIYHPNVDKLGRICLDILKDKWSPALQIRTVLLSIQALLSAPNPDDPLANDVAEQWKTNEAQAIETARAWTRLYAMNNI

[35] = target: T6, Ubiquitin-conjugating enzyme E2 N; type: functional; remark: listed apart in the source
[36] = target: T1, Alkaline phosphatase, tissue-nonspecific isozyme; experiment: human TNAP enzyme inhibitors, SAR follow-up, biochemical, luminescent, dose response (AID 1056)
[37] = target: Glyceraldehyde-3-phosphate dehydrogenase (Homo sapiens, UniProt P04406)

Sequence of Exodeoxyribonuclease V (P04993 whole entry): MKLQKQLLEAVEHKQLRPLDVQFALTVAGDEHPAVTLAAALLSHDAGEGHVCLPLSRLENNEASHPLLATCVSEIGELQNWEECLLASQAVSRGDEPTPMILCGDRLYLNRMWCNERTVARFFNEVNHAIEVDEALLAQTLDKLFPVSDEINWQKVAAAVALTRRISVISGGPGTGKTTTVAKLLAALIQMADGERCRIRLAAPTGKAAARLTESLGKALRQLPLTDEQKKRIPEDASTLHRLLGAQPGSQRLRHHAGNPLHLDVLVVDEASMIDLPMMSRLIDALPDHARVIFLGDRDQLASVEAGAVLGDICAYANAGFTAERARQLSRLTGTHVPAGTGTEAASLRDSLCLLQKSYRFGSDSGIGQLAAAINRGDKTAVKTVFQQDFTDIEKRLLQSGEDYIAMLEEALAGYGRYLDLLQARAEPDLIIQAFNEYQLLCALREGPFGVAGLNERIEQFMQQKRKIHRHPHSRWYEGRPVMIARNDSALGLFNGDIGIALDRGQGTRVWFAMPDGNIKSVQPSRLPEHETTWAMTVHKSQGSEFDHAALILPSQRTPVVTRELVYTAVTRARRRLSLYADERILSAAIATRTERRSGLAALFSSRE
Sequence of Exodeoxyribonuclease V (P07648 whole entry): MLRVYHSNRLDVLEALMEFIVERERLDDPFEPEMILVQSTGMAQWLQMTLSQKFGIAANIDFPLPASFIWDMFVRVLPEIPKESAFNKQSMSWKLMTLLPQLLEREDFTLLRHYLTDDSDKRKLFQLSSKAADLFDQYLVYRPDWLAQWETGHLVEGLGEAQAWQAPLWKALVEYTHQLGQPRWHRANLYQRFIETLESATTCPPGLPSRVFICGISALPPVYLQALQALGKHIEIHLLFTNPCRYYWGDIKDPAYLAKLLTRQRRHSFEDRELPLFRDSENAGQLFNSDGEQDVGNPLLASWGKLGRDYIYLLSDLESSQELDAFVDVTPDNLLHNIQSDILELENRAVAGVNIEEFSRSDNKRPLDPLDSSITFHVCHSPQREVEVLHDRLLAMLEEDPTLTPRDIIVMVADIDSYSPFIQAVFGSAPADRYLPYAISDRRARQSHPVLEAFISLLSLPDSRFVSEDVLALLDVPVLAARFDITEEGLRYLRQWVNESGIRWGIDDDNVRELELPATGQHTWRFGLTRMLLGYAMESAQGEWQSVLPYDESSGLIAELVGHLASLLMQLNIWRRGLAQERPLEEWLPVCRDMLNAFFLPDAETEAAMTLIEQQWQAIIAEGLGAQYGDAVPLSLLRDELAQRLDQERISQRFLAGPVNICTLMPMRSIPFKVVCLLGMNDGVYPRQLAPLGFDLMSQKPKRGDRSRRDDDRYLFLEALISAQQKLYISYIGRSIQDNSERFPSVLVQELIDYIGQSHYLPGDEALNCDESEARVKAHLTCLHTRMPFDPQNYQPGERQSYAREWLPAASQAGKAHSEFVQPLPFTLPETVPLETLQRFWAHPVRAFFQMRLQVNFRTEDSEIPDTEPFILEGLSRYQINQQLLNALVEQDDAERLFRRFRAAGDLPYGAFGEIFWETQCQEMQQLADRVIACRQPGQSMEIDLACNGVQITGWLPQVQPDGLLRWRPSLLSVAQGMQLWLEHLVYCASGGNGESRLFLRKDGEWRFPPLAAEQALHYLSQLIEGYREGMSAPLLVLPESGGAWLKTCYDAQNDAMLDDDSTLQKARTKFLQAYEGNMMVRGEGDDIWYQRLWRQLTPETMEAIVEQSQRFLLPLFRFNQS
Sequence of Exodeoxyribonuclease V (P08394 whole entry): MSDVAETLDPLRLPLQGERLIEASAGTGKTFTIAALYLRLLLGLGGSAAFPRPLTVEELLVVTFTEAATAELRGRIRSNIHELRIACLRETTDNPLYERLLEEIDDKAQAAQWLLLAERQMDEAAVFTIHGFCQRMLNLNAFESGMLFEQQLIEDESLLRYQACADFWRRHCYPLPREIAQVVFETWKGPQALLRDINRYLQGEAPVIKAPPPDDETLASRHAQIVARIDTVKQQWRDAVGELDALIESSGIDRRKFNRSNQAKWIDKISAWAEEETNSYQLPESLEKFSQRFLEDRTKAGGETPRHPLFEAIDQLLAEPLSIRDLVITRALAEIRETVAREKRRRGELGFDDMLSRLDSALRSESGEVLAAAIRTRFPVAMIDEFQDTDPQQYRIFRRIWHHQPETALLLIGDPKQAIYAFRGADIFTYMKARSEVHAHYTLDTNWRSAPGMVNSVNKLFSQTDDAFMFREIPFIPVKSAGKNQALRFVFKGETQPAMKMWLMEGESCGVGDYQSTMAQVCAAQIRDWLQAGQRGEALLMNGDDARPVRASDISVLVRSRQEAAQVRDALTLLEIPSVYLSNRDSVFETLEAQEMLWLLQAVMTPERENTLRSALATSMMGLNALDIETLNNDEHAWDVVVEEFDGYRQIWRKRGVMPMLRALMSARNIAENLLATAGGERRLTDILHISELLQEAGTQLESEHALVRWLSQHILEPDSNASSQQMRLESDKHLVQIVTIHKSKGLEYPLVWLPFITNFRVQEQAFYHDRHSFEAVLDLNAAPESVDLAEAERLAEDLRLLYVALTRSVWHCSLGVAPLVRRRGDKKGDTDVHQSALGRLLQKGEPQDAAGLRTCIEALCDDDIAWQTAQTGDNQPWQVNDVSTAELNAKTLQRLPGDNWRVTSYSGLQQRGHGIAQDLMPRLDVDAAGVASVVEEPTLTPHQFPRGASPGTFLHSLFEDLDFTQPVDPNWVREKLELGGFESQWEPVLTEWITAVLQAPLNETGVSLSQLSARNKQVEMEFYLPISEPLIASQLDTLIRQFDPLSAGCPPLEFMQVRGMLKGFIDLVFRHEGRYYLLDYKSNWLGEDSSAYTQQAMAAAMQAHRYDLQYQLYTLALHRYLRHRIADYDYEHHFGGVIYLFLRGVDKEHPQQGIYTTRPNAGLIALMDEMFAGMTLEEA
Sequence of Estrogen receptor beta (Q92731 whole entry, the tested form may be a part): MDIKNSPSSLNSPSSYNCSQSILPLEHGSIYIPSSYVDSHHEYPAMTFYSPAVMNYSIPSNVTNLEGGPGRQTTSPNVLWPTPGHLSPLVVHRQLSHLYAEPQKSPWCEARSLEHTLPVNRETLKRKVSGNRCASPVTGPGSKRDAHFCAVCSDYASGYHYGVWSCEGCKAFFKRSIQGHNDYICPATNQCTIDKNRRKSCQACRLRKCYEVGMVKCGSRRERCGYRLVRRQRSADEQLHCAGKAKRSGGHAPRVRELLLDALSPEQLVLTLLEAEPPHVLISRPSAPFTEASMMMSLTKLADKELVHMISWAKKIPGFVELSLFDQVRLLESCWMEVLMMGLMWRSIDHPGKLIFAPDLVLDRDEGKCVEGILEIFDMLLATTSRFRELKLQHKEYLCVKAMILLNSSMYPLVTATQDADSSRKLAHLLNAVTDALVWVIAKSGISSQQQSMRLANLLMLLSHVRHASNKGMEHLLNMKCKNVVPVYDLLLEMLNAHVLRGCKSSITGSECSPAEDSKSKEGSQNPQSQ
Sequence of Perilipin-1/ABHD5 (Q8WTS1 whole entry, the tested form may be a part): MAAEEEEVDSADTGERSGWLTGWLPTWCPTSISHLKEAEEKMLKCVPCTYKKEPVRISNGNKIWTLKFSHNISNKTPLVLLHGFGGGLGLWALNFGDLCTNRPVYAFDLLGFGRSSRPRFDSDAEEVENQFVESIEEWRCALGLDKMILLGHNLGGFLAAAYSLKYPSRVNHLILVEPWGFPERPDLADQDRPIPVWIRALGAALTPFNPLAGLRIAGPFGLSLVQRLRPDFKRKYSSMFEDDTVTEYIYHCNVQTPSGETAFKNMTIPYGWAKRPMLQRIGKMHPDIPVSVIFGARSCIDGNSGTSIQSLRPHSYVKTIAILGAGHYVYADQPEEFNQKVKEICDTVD
Sequence of Perilipin-1/ABHD5 (O60240 whole entry, the tested form may be a part): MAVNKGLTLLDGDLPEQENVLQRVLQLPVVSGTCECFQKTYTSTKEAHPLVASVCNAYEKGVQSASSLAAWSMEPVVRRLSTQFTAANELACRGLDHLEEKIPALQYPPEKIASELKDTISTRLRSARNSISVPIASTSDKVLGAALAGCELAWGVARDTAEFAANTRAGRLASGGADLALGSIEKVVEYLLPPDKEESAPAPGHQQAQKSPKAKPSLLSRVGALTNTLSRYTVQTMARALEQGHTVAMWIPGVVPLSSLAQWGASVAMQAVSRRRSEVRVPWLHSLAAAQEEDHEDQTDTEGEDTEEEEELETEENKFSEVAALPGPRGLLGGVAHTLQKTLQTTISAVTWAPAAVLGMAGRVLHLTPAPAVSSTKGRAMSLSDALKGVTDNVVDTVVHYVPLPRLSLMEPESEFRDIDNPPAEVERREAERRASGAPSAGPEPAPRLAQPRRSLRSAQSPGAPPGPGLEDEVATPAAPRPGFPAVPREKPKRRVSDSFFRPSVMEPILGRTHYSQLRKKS
Sequence of DNA dC->dU-editing enzyme APOBEC-3A (P31941 whole entry): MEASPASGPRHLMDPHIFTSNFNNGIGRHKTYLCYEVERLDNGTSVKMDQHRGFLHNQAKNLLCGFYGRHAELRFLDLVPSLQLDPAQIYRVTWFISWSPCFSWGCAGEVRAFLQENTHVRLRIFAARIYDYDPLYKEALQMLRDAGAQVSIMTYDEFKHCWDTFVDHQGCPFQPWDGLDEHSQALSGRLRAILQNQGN
Sequence of DNA dC->dU-editing enzyme APOBEC-3G (Q9HC16 whole entry): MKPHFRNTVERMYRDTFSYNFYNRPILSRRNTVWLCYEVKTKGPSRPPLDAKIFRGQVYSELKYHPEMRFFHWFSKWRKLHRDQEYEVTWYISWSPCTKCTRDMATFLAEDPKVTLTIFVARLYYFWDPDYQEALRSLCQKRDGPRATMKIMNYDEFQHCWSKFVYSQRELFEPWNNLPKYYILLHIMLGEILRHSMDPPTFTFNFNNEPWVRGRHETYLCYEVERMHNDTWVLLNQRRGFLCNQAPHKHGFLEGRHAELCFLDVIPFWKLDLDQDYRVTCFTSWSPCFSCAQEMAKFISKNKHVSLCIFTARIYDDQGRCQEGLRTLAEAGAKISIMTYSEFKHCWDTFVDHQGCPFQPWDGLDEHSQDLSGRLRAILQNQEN

CCOc1ccccc1N1CCN(S(=O)(=O)c2ccc3c4c(cccc24)C(=O)N3)CC1
IC50 [1]: 81.2 µM (active)
IC50 [2]: 7.13 µM (active)
IC50 [3]: > 100 µM (inactive)
IC50 [4]: 9.19 µM (not active)
IC50 [5]: 7.47 µM (active)

O=C1c2ccccc2NC(c2ccc(-c3ccc(Br)cc3)o2)N1O (stereo not drawn)
EC50 [6]: > 150 µM (inconclusive)
IC50 [7]: > 79 µM (inactive)
IC50 [8]: > 119 µM (inactive)
AC50 [9]: 4.35 µM (active)
IC50 [10]: > 119 µM (inactive)
AC50 [11]: 6.74 µM (active)
EC50 [12]: > 38 µM (not active)

CCc1nc(-c2ccc(C)nc2OC)no1
IC50 [13]: 4.74 µM (active)
IC50 [14]: 3.49 µM (active)

COc1ccc(CN(CCC(c2ccccc2)c2ccc(OC(C)C)cc2)C(=O)CCl)cc1OC (stereo not drawn)
EC50 [15]: 3.74 µM (active)
IC50 [16]: 10.6 µM (active)
EC50 [17]: 0.605 µM (active)
AC50 [18]: 0.335 µM (active)
EC50 [19]: 0.333 µM (active)
IC50 [20]: 6.94 µM (active)
IC50 [21]: 3.57 µM (active)
EC50 [22]: 17.9 µM (active)
EC50 [23]: 4.09 µM (inconclusive)
IC50 [24]: 13.9 µM (inactive)
EC50 [25]: 3.43 µM (active)
EC50 [26]: > 20 µM (inactive)
EC50 [27]: 6.29 µM (active)
AC50 [9]: 1.25 µM (active)
EC50 [28]: 6.08 µM (active)
IC50 [29]: > 20 µM (inactive)
EC50 [30]: 4.25 µM (active)
CC50 [31]: 1.49 µM (active)
IC50 [32]: 3.17 µM (active)

COc1ccc(/C=N\NC(=O)c2sc(N)nc2C)cc1OC
IC50 [33]: > 20 µM (inactive)
IC50 [34]: 0.548 µM (active)
IC50 [35]: 0.507 µM (active)

CC(C)CSc1nnc(N)[nH]1
IC50 [36]: 60.8 µM (active)
IC50 [37]: > 100 µM (not active)
